Measured values from patent publication US11834450B2, “Compounds having ((3-nitrophenyl)sulfonyl)acetamide as BCL-2 inhibitors” (Eil Therapeutics, Inc., priority 2021, dated 2023).

Legend:
MOLT-4 cells = assay: Cell viability assay MOLT-4 (CellTiter-Glo); format: cell-based; settings: Homo sapiens, 72 h; MOLT-4 cells, 3 days, CellTiter-Glo; read-out: MOLT-4 (CC50 code)
Outline: (§1)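 Cells were seeded at 2000/well (HEK293, in DMEM, pre-incubated a day) or 4000/well (other lines, in RPMI-1640). Serially diluted compound was added and plates incubated 3 days at 37 °C, with viability read by CellTiter-Glo luminescence.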

BCL-2 = target: T1, BCL-2 (Homo sapiens, UniProt P10415); assay: BCL-2 TR-FRET Assay (primary PPI inhibition); format: binding; settings: 60 min incubation; read-out: BCL2 (IC50 code, BCL-2 TR-FRET)
T1 construct: purchased BPS Bioscience #50222
T1 sequence (P10415 whole entry): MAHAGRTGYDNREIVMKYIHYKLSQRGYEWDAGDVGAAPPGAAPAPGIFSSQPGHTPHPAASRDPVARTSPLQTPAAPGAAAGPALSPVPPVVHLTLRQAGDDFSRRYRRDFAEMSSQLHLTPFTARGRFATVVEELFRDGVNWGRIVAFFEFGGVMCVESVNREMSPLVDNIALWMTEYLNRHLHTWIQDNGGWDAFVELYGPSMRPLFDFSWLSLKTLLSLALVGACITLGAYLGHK

[1] = Cell viability assay HEK293 (CellTiter-Glo); format: cell-based; settings: human, HEK293 cells, read-out: HEK293 (CC50 code)
Outline: as §1

[2] = system: caspase-3 and -7 activities in RS4-11 cells; assay: Cas-3/7 activation (Caspase-Glo 3/7) in RS4-11 cells; format: cell-based; settings: Homo sapiens, 3.5 h at 37° C. and 30 min at r.t., read-out: Cas-3/7 (EC50 code)
Experimental: Assay Principle: The Caspase-Glo 3/7 Assay is homogeneous, luminescent assay that measures caspase-3 and -7 activities. The assay provides a luminogenic caspase-3/7 substrate, which contains the tetrapeptide sequence DEVD, in a reagent optimized for caspase activity.
Assay Procedure: Incubate RS4-11 cells with varying concentrations of test compounds for 3.5 h in a humidified incubator at 37° C. and 5% CO2 and 30 min at r.t. Add 15 μl Caspase-Glo reagent to each well and incubate the plate for 30 min at r.t. Read on ClarioStar Plus instrument.
Materials: Promega Caspase-Glo (Promega, #8212); Frozen RS4-11 cells; 384-well white plate (Corning, #3570).
Instrumentation: ClarioStar Plus; Biomek FX for liquid handling (Beckman Coulter).

BCL-XL = target: T2, BCL-XL (Homo sapiens, UniProt Q07817); assay: BCL-XL TR-FRET Assay (primary PPI inhibition); format: binding; settings: 60 min incubation; read-out: BCLxL (IC50 code, BCL-XL TR-FRET)
T2 construct: purchased BPS Bioscience #50223
T2 sequence (Q07817 whole entry): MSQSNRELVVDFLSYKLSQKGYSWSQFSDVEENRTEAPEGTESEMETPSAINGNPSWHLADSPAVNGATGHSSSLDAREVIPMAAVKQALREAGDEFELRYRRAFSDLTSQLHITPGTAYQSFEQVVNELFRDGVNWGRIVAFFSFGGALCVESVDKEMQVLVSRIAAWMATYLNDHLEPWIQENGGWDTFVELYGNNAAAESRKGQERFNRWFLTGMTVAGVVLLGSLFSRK
Outline: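 TR-FRET readout (ex 340 nm; em 620/665 nm; 60 μs delay, 500 μs integration) after a 60 min incubation. Mix: compound, 10.5 ng BCL-XL, BCL-XL peptide ligand at 1:80, plus anti-His Tb donor and dye acceptor each at 1:100.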

RS4-11 cells = assay: Cell viability assay RS4-11 (CellTiter-Glo); format: cell-based; settings: Homo sapiens, 72 h; RS4-11 cells, 3 days, CellTiter-Glo; read-out: RS4-11 (CC50 code)
Outline: as §1

SMILES	IC50 (BCL-2) [nM]	EC50 [2] [nM]	IC50 (BCL-XL) [nM]	CC50 (MOLT-4 cells) [nM]	CC50 at 3 days [1] [nM]	CC50 (RS4-11 cells) [nM]
O=C(NS(=O)(=O)c1ccc(NCC2CCOCC2)c([N+](=O)[O-])c1)c1ccc(N2CCN(CC(c3ccccc3)c3ccc(F)c(F)c3)CC2)cc1Oc1cnc2[nH]ccc2c1 (stereo not drawn) [Compound 13, 4-[4-[2-(3,4-difluorophenyl)-2-phenyl-ethyl]piperazin-1-yl]-N-[3 nitro-4-(tetrahydropyran-4-ylmethylamino)phenyl]sulfonyl-2 (1H-pyrrolo[2,3-b]pyridin-5-yloxy)benzamide]	> 50	> 250	> 4000	< 2000	≤ 10000	> 200
O=C(NS(=O)(=O)c1ccc(NCC2CCOCC2)c([N+](=O)[O-])c1)c1ccc(N2CCN(CC3Cc4ccc(Cl)cc4CN3C(=O)C3CC3)CC2)cc1Oc1cnc2[nH]ccc2c1 (stereo not drawn) [Compound 20, 4-[4-[[7-chloro-2-(cyclopropanecarbonyl)-3,4-dihydro-1H-isoquinolin-3-yl]methyl]piperazin-1-yl]-N-[3-nitro-4-(tetrahydropyran-4-ylmethylamino)phenyl]sulfonyl-2-(1H-pyrrolo[2,3-b]pyridin-5-yloxy)benzamide]	> 50	> 250	> 4000	2000 to 10000	> 25000	> 200
O=C(NS(=O)(=O)c1ccc(NCC2CCOCC2)c([N+](=O)[O-])c1)c1ccc(N2CCN(CC3Cc4cc(Cl)ccc4CN3C(=O)C3CC3)CC2)cc1Oc1cnc2[nH]ccc2c1 (stereo not drawn) [Compound 22, 4-[4-[[6-chloro-2-(cyclopropanecarbonyl)-3,4-dihydro-1H-isoquinolin-3-yl]methyl]piperazin-1-yl]-N-[3-nitro-4-(tetrahydropyran-4-ylmethylamino)phenyl]sulfonyl-2-(1H-pyrrolo[2,3-b]pyridin-5-yloxy)benzamide]	> 50	> 250	> 4000	2000 to 10000	> 25000	> 200
CC1(O)CC[C@H](CN2CCN(c3ccc(C(=O)NS(=O)(=O)c4ccc(NCC5CCOCC5)c([N+](=O)[O-])c4)c(Oc4cnc5[nH]ccc5c4)c3)CC2)[C@@H](c2ccc(Cl)cc2)C1 (stereo partly drawn) [Compound 28, 4-[4-[[(1S,2S)-2-(4-chlorophenyl)-4-hydroxy-4-methyl-cyclohexyl]methyl]piperazin-1-yl]-N-[3-nitro-4-(tetrahydropyran-4-ylmethylamino)phenyl]sulfonyl-2-(1H-pyrrolo[2,3-b]pyridin-5-yloxy)benzamide]	< 5	100 to 250	≤ 2000	2000 to 10000	> 25000	100 to 200
O=C(NS(=O)(=O)c1ccc(NCC2CCOCC2)c([N+](=O)[O-])c1)c1ccc(N2CCN(C[C@H]3Cc4ccccc4CN3C(=O)C3CC3)CC2)cc1Oc1cnc2[nH]ccc2c1 [Compound 33, 4-[4-[[(3R)-2-(cyclopropanecarbonyl)-3,4-dihydro-1H-isoquinolin-3-yl]methyl]piperazin-1-yl]-N-[3-nitro-4-(tetrahydropyran-4-ylmethylamino)phenyl]sulfonyl-2-(1H-pyrrolo[2,3-b]pyridin-5-yloxy)benzamide]	10 to 50	> 250	> 4000	2000 to 10000	> 25000	> 200

Continued, in another order:

IC50 (BCL-2) [nM]	EC50 [2] [nM]	IC50 (BCL-XL) [nM]	SMILES	CC50 (MOLT-4 cells) [nM]	CC50 at 3 days [1] [nM]	CC50 (RS4-11 cells) [nM]
> 50	> 250	> 4000	O=C(NS(=O)(=O)c1ccc(NCC2CCOCC2)c([N+](=O)[O-])c1)c1ccc(N2CCN(C[C@@H]3Cc4ccccc4CN3C(=O)c3ccc(Cl)s3)CC2)cc1Oc1cnc2[nH]ccc2c1 [Compound 35, 4-[4-[[(3S)-2-(5-chlorothiophene-2-carbonyl)-3,4-dihydro-1H-isoquinolin-3-yl]methyl]piperazin-1-yl]-N-[3-nitro-4-(tetrahydropyran-4-ylmethylamino)phenyl]sulfonyl-2-(1H-pyrrolo[2,3-b]pyridin-5-yloxy)benzamide]	2000 to 10000	> 25000	> 200
> 50	> 250	> 4000	O=C(NS(=O)(=O)c1ccc(NCC2CCOCC2)c([N+](=O)[O-])c1)c1ccc(N2CCN(C[C@@H]3Cc4ccccc4CN3C(=O)c3ccsc3)CC2)cc1Oc1cnc2[nH]ccc2c1 [Compound 36, N-[3-nitro-4-(tetrahydropyran-4-ylmethylamino)phenyl]sulfonyl-2 (1H-pyrrolo[2,3-b]pyridin-5-yloxy)-4-[4-[[(3S)-2-(thiophene-3 carbonyl)-3,4-dihydro-1H-isoquinolin-3-yl]methyl]piperazin 1-yl]benzamide]	2000 to 10000	10000 to 25000	> 200
> 50	> 250	> 4000	CC1(C)CN(CC2CCN(c3ccc(C(=O)NS(=O)(=O)c4ccc(NCC5CCOCC5)c([N+](=O)[O-])c4)c(Oc4cnc5[nH]ccc5c4)c3)CC2)Cc2ccccc21 [Compound 39, 4-[4-[(4,4-dimethyl-1,3-dihydroisoquinolin-2-yl)methyl]-1-piperidyl]-N-[3-nitro-4-(tetrahydropyran-4-ylmethylamino)phenyl]sulfonyl-2-(1H-pyrrolo[2,3-b]pyridin-5-yloxy)benzamide]	2000 to 10000	> 25000	> 200
> 50	> 250	> 4000	CC(C)C(=O)N1Cc2ccc(Cl)cc2C[C@H]1CN1CCN(c2ccc(C(=O)NS(=O)(=O)c3ccc(NCC4CCOCC4)c([N+](=O)[O-])c3)c(Oc3cnc4[nH]ccc4c3)c2)CC1 [Compound 40, 4-[4-[[(3S)-6-chloro-2-(2-methylpropanoyl)-3,4-dihydro-1H-isoquinolin-3-yl]methyl]piperazin-1-yl]-N-[3-nitro-4-(tetrahydropyran-4-ylmethylamino)phenyl]sulfonyl-2-(1H-pyrrolo[2,3-b]pyridin-5-yloxy)benzamide]	2000 to 10000	10000 to 25000	> 200
> 50	> 250	> 4000	O=C(NS(=O)(=O)c1ccc(NCC2CCOCC2)c([N+](=O)[O-])c1)c1ccc(N2CCC(CN3Cc4ccccc4CC3c3ccccc3)CC2)cc1Oc1cnc2[nH]ccc2c1 (stereo not drawn) [Compound 41, N-[3-nitro-4-(tetrahydropyran-4-ylmethylamino)phenyl]sulfonyl-4-[4-[(3-phenyl-3,4-dihydro-1H-isoquinolin-2-yl)methyl]-1-piperidyl]-2-(1H-pyrrolo[2,3-b]pyridin-5-yloxy)benzamide]	2000 to 10000	> 25000	> 200
> 50	> 250	> 4000	O=C(NS(=O)(=O)c1ccc(NCC2CCOCC2)c([N+](=O)[O-])c1)c1ccc(N2CCN(CC(O)(c3ccccc3)c3ccc(Cl)cc3)CC2)cc1Oc1cnc2[nH]ccc2c1 (stereo not drawn) [Compound 43, 4-[4-[2-(4-chlorophenyl)-2-hydroxy-2-phenyl-ethyl]piperazin-1-yl]-N-[3-nitro-4-(tetrahydropyran-4-ylmethylamino)phenyl]sulfonyl-2-(1H-pyrrolo[2,3-b]pyridin-5-yloxy)benzamide]	2000 to 10000	> 25000	> 200
